How the values were obtained:
[1] = tested on: CLZ_40 (TTGT 266) mRNA in striatum and amygdala; assay: TOGA analysis of mRNA from brain of morphine-treated mice; assay type: in vivo, mouse
Procedure: For the morphine studies, male C57B1/6J mice (20-28 g) were housed as previously described in Example 1 and divided into the following groups: 1) a control group, in which the mice were subcutaneusly implanted with one placebo pellet upon halothane anaesthesia; 2) an acute morphine group, in which the mice received a morphine intraperitoneal injection of 10 mg/kg; 3) a chronic or tolerant group, in which mice were rendered drug-tolerant and dependent by means of subcutaneous implantation of a single pellet containing 75 mg of morphine free base for 3 days; and 4) a withdrawal group, in which the mice rendered tolerant to morphine were injected intraperitoneally with naltrexone 1 mg/kg. […] Their brains were rapidly removed. The striatum, including the nucleus accumbens, and block of tissues containing the amygdala complex were dissected under microscope and collected in ice-cold RNA extraction buffer.

[2] = tested on: CLZ_40 (SEQ ID NO:12) mRNA; assay: Real Time PCR validation of CLZ_40; assay type: in vivo, mouse; details: mice chronically (2 weeks) treated
Description: Validation of the DST expression for select DSTs was done by Real Time PCR using the ABI PRISM 7700 Sequence Detection System (PE Biosystems) that combines PCR, cycle-by-cycle fluorescence detection and analysis software for high-throughput quantitation of nucleic acid sequences. […] Standards for normalizing the quantitation of gene levels were chosen from a panel of 5 mouse “housekeeping” genes.

CLZ_5 (apoD) mRNA = assay: Real Time PCR validation of CLZ_5 (apoD); assay type: in vivo, mouse; details: clozapine or haloperidol treated mice
[3] = tested on: CLZ_44 (SEQ ID NO:38) mRNA; assay: Northern blot analysis of CLZ_44 in striatum/nucleus accumbens; assay type: in vivo, mouse; details: 2 weeks of treatment; clozapine 7.5 mg/kg, haloperidol 4 mg/kg, ketanserin 4 mg/kg
Procedure: FIG. 39 is a graphical representation of a Northern Blot analysis of clone CLZ—44 (ACGG 352) (SEQ ID NO:38), where an agarose gel containing poly A enriched mRNA from the striatum/nucleus accumbens of clozapine-treated mice as well as size standards was blotted after electrophoresis and probed with radiolabelled CLZ—44.
In further characterization of CLZ—44, Northern blot analyses were performed to determine the pattern of expression in the striatum/nucleus accumbens after 2 weeks of treatment of control mice, clozapine-treated mice, haloperidol-treated mice, and ketanserin-treated mice (FIG. 39). Ketanserin is a 5HT2A/2C—selective antagonist, and is used to determine serotonorgic involvement in these drug effects. FIG. 39 is a graphical representation of the described northern blot analyses.

apoD mRNA [4] = assay: In situ hybridization analysis of apoD (CLZ_5) in mouse brain; assay type: in vivo; details: clozapine 7.5 mg/kg five days and two weeks: striatum, cortex, globus pallidus, thalamus, white matter tracts; haloperidol: gray or white matter regions
Procedure: In further characterization of CLZ—43, in situ hybridization analysis using an antisense cRNA probe directed against the 3′ end of CLZ—43 were performed to show the pattern of CLZ—43 mRNA expression (FIG. 4A-F). In situ hybridization was performed on free-floating coronal sections (25 μM thick) with an ^35S-labeled, single-stranded antisense cRNA probe of CLZ—43. Coronal sections were hybridized at 55° C for 16 hour with an ^35S-labeled, single-stranded antisense cRNA probe of CLZ—43 at 10^7 cpm/ml. The probe was synthesized from the 3′-ended cDNA TOGA™ clone using the Maxiscript Transcription Kit (Ambion, Austin, Tex.). Excess probe was removed by washing with 2×SSC (I×SSC=[…]) containing 14 mM β-mercaptoethanol (30 minutes), followed by incubation with 4 μg/ml ribonuclease in 0.5 M NaCl/0.05 M EDTA/0.05 M Tris-HCl, pH 7.5, for 1 hour at 37° C. High stringency washes were carried out at 55° C. for 2 hours in 0.5×SSC/50% formamide/0.01 M β-mercaptoethanol, and then at 68° C. for 1 hour in 0.1×SSC/0.01 M β-mercaptoethanol/0.5% sarkosyl. […]
To investigate additional sites of apoD induction, in situ hybridization analysis was performed on brains from saline- and clozapine-treated mice. […] Increases in apoD expression were also detected in white matter tracts, predominantly the corpus callosum (cc), anterior commissure, internal capsule (ic) and optic tract (opt). […]

[5] = tested on: CLZ_43 (SEQ ID NO:37) mRNA; assay: Real Time PCR validation of CLZ_43; details: clozapine 12 days; haloperidol 14 days; relative to untreated mice
[6] = tested on: mouse sequence homolog to human KIAA1451 (SEQ ID NO:79); assay: Real Time PCR of mouse sequence homolog to human KIAA1451; details: mice chronically treated
[7] = tested on: mRNAs (DSTs) expressed in striatum/nucleus accumbens; assay: TOGA analysis of mRNA from striatum/nucleus accumbens of neuroleptic-treated mice (Table 1); details: haloperidol experiment in duplicate, average
apoD mRNA [8] = assay: apoD mRNA expression in mouse brain after 5HT2 antagonists (preliminary results); assay type: in vivo

CN1CC[C@]23c4c5ccc(O)c4O[C@H]2[C@@H](O)C=C[C@H]3[C@H]1C5 [morphine]
CLZ_40 expression in striatum, TOGA ([1]; acute morphine 10 mg/kg i.p., withdrawal (naltrexone 1 mg/kg in morphine-tolerant mice)): downregulated in withdrawal striatum but not acutely treated striatum
CLZ_40 expression in amygdala, TOGA ([1]; acutely treated (morphine 10 mg/kg i.p., 4 hours)): slightly upregulated
CLZ_40 expression in amygdala, TOGA ([1]; chronically treated (75 mg pellet, 3 days) and withdrawal): increasingly upregulated

O=C(CCCN1CCC(O)(c2ccc(Cl)cc2)CC1)c1ccc(F)cc1 [haloperidol]
decrease in expression of CLZ_40, Real Time PCR [2]: 0.66 fold
increase in expression of CLZ_5 (apoD), Real Time PCR (CLZ_5 (apoD) mRNA): 1.75 fold
CLZ_44 expression, Northern [3]: up-regulated
apoD mRNA, in situ hybridization (apoD mRNA [4]): did not reveal substantial increases
CLZ_43 expression, TOGA and Real Time PCR [5]: not significantly responsive
increase in expression of mouse homolog to human KIAA1451, Real Time PCR [6]: 2.57 fold
CLZ_43 TOGA profile for the haloperidol response [7]: 1.08 fold

O=C(c1ccc(F)cc1)C1CCN(CCn2c(=O)[nH]c3ccccc3c2=O)CC1 [ketanserin]
CLZ_44 expression, Northern [3]: up-regulated
apoD mRNA expression in mouse brain (apoD mRNA [8]): apparent upregulation

CN1CCN(C2=Nc3cc(Cl)ccc3Nc3ccccc32)CC1 [clozapine]
decrease in expression of CLZ_40, Real Time PCR [2]: 0.37 fold
increase in expression of mouse homolog to human KIAA1451, Real Time PCR [6]: 2.09 fold
